Patent US6410585B1, “Inhibitors of protein tyrosine phosphatase” (priority 1997, dated 2002)
Like-named read-outs stand apart in the source and are kept apart here.

Target: T1, rat PTP1 (Rattus norvegicus, UniProt P20417)
T1 construct: a C-terminal truncation of rat PTP1 (amino acid residues 1-322); GST (N, cleaved yes); made in house; host or cells: E. coli strain TG-1 (pGEX-2T)
T1 sequence (P20417 1-322): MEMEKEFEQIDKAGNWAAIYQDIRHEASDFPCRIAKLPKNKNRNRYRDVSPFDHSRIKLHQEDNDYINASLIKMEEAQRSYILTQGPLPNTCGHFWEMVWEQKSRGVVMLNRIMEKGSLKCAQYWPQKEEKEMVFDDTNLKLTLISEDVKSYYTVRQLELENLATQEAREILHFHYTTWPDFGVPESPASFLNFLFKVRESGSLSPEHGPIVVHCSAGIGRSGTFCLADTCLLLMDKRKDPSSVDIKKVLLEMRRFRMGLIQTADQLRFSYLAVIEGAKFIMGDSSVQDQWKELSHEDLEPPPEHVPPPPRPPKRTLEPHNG
Experiment: PTP1 assay, pNPP hydrolysis (rate of change in A405)
Type: biochemical
Description: PTP1 Assays: A construct, which consisted of a C-terminal truncation of rat PTP1 (amino acid residues 1-322) (cloned from a rat brain library) with an N-terminal glutathione S-transferase (GST) tag and an adjacent thrombin cleavage site, was inserted into vector plasmid pGEX-2T and transformed into E. coli strain TG-1 under the control of a lac promoter (K. L. Guan and J. E. Dixon (1991) Eukaryotic proteins expressed in Escherichia coli: an improved thrombin cleavage and purification procedure of fusion proteins with glutathione S-transferase. Analyt. Biochem. 192: 262-267). The GST-fusion protein was purified on a glutathione agarose affinity column, the GST tag was cleaved with thrombin, and the active enzyme was recovered for use in an assay to identify PTP inhibitors.
PTP1 activity is measured using either p-nitrophenol phosphate (pNPP) or a triphosphopeptide (that matches residues 1142 through 1153 of the β-subunit and the insulin receptor) as substrate in a 96-well microtiter plate format. An assay pH of 7.2 is used for standard assays (measured 405=9800 at pH 7.2).
Standard assays are conducted at room temperature in a total volume of 0.2 ml that contains Hepes buffer (50 mM, pH 7.2), NaCl (50 mM), EDTA (1 mM), DTT (1 mM), bovine serum albumin (1 mg/ml), pNPP (1 mM) and PTP1 (35 ng/ml). Compounds (2 μl of 10 mM solutions) are pipetted into wells of microtiter plates followed by 198 μl of premixed reaction mix (with PTP1 and pNPP added immediately before use). The rate of change in A405 is recorded for 60 min. Two wells on each plate contain DMSO controls and two wells contain sodium orthovanadate (1 mM) which inhibits PTP1-catalyzed hydrolysis of pNPP completely. Data are expressed as percent inhibition relative to the average of the DMSO controls measured on the same microtiter plate.

[1] = Conc 1 uM, pNPP hydrolysis, Table 2, read-out: PTP1 Inhib PTP1N. % Inhib
[2] = Conc 10 uM, pNPP hydrolysis, Table 2, read-out: PTP1 Inhib PTP1N. % Inhib
[3] = Conc 100 uM, pNPP hydrolysis, Table 2, read-out: PTP1 Inhib PTP1N. % Inhib
[4] = Conc 1 uM, pNPP hydrolysis, Table 1, read-out: PTP1 Inhib % Inhib
[5] = Conc 10 uM, pNPP hydrolysis, Table 1, read-out: PTP1 Inhib % Inhib
[6] = Conc 100 uM, pNPP hydrolysis, Table 1, read-out: PTP1 Inhib % Inhib
[7] = inhibition of pNPP-hydrolysis, compound concentration 1 μM, read-out: % Inhibition
[8] = inhibition of pNPP-hydrolysis, compound concentration 10 μM, read-out: % Inhibition
[9] = inhibition of pNPP-hydrolysis, compound concentration 100 μM, read-out: % Inhibition

Row | inhibition at 1 µM [4] [%] | inhibition at 10 µM [5] [%] | inhibition at 100 µM [6] [%] | Compound | further results
1 |  |  |  | CCCCCNC(=O)C(Cc1ccc(OC(COO)COO)cc1)NC(=O)C(Cc1ccc(OCc2ccccc2)cc1)N(C)C(=O)OC(C)(C)C (stereo not drawn) | inhibition at 1 µM [1]: 0%; inhibition at 10 µM [2]: 0%; inhibition at 100 µM [3]: 32%
2 |  |  |  | CCCCCNC(=O)C(Cc1ccc(OC(COO)COO)cc1)NC(=O)N(Cc1ccc(CC(=O)O)cc1)Cc1cccc(C(F)(F)F)c1 (stereo not drawn) | inhibition at 1 µM [1]: 4%; inhibition at 10 µM [2]: 51%; inhibition at 100 µM [3]: 92%
3 | 3 | 12 | 53 | CCCCCNC(=O)[C@H](Cc1ccc(OC(C(=O)O)C(=O)O)cc1)NC(=O)COCC(=O)O | 
4 | 3 | 14 | 56 | O=C(O)CCC(=O)NC(Cc1ccc(OC(COO)COO)cc1)C(=O)NCc1ccc(C(=O)O)cc1 (stereo not drawn) | 
5 | 0 | 18 | 67 | CCCCCNC(=O)[C@H](Cc1ccc(OC(C(=O)O)C(=O)O)cc1)NC(=O)CC(C)(C)CC(=O)O | 
6 |  |  |  | CCCCCNC(=O)C(Cc1ccc(OC(COO)COO)cc1)NC(=O)C(Cc1ccc(OCc2ccccc2)cc1)NC(=O)CCC(=O)O (stereo not drawn) | inhibition at 1 µM [1]: 30%; inhibition at 10 µM [2]: 80%; inhibition at 100 µM [3]: 98%
7 | 4 | 5 | 41 | CCCCCNC(=O)[C@H](Cc1ccc(OC(C(=O)O)C(=O)O)cc1)NC(=O)C1C2CCC(CC2)C1C(=O)O (stereo partly drawn) | 
8 | 4 | 20 | 74 | CCCCCNC(=O)[C@H](Cc1ccc(OC(C(=O)O)C(=O)O)cc1)NC(=O)CC(=O)O | 
9 | 2 | 17 | 67 | CCCCCNC(=O)[C@H](Cc1ccc(OC(C(=O)O)C(=O)O)cc1)NC(=O)CCCC(=O)O | 
10 | 4 | 23 | 75 | CCCCCNC(=O)C(Cc1ccc(OC(COO)COO)cc1)NC(=O)NCC(=O)O (stereo not drawn) | 
11 |  |  |  | CC(C)(C)OC(=O)N[C@@H](Cc1ccccc1)C(=O)N[C@@H](Cc1ccc(OCC(=O)O)c(C(=O)O)c1)C(=O)NCCO [Example 157-3, 5-{(2S)-2-({(2S)-2-[(tert-Butoxycarbonyl)amino]-3-phenylpropanoyl}amino)-3-[(2-hydroxyethyl)amino]-3-oxopropyl}-2-(carboxymethoxy)benzoic] | % Inhibition (inhibition of pNPP-hydrolysis, compound concentration 1 μM): 22%; % Inhibition (inhibition of pNPP-hydrolysis, compound concentration 10 μM): 72%; % Inhibition (inhibition of pNPP-hydrolysis, compound concentration 100 μM): 94%
12 |  |  |  | O=C(O)COc1ccc(C[C@H](NC(=O)c2ccc(Cl)cc2)C(=O)NCCCCc2ccc(Cl)cc2)cc1C(=O)O [Example 154-20, 2-(carboxymethoxy)-5-((2S)-2-[(4-chlorobenzoyl)amino]-3-{[4-(4-chlorophenyl)butyl]amino}-3-oxopropyl)benzoic acid] | inhibition at 1 µM [7]: 27%; inhibition at 10 µM [8]: 79%; inhibition at 100 µM [9]: 98%
13 |  |  |  | COc1ccc(CCCCNC(=O)[C@H](Cc2ccc(OCC(=O)O)c(C(=O)O)c2)NC(=O)c2ccc(Cl)nc2)cc1 [Example 154-34, 2-(carboxymethoxy)-5-((2S)-2-{[(6-chloro-3-pyridinyl)carbonyl]amino}-3-{[4-(4-methoxyphenyl)butyl]amino}-3-oxopropyl)benzoic acid] | inhibition at 1 µM [7]: 26%; inhibition at 10 µM [8]: 77%; inhibition at 100 µM [9]: 96%
14 |  |  |  | O=C(O)COc1ccc(C[C@H](NC(=O)c2ccoc2)C(=O)NCCCCc2ccc(Cl)cc2)cc1C(=O)O [Example 154-26, 2-(carboxymethoxy)-5-[(2S)-3-{[4-(4-chlorophenyl)butyl]amino}-2-(3-furoylamino)-3-oxopropyl]benzoic acid] | inhibition at 1 µM [7]: 30%; inhibition at 10 µM [8]: 78%; inhibition at 100 µM [9]: 97%
15 | 3 | 8 | 80 | CCCCCNC(=O)C(Cc1ccc(OS(=O)(=O)O)cc1)NC(=O)CCC(=O)O (stereo not drawn) | 
16 | 13 | 53 | 90 | CCCCCNC(=O)[C@H](Cc1ccc(OC(C(=O)O)C(=O)O)cc1)NC(=O)C(CC(=O)O)NC(=O)OC(C)(C)C (stereo partly drawn) | 

Row | inhibition at 1 µM [4] [%] | inhibition at 10 µM [5] [%] | inhibition at 100 µM [6] [%] | Compound | further results
17 | 1 | 33 | 83 | CCCCCNC(=O)[C@H](Cc1ccc(OC(C(=O)O)C(=O)O)cc1)NC(=O)C(CC(=O)O)CC(=O)O | 
18 | 0 | 11 | 51 | CCCCCNC(=O)[C@H](Cc1ccc(OC(C(=O)O)C(=O)O)cc1)NC(=O)CCC(N)=O | 
19 | 17 | 63 | 93 | CCCCCNC(=O)C(Cc1ccc(OCC(=O)O)c(COO)c1)NC(=O)CCC(=O)O (stereo not drawn) | 
20 | 0 | 9 | 50 | CCCCCNC(=O)C(Cc1ccc(OC(=CCOO)COO)cc1)NC(=O)CCC(=O)O (stereo not drawn) | 
21 |  |  |  | CCCCCNC(=O)C(Cc1ccc(OC(COO)COO)cc1)NC(=O)CCC(=O)O (stereo not drawn) [drawing 101] | PTP1 Inhib % Inhib (Conc 1 uM, pNPP hydrolysis, Table 1): 3%; PTP1 Inhib % Inhib (Conc 10 uM, pNPP hydrolysis, Table 1): 4%; PTP1 Inhib % Inhib (Conc 100 uM, pNPP hydrolysis, Table 1): 39%
22 | 0 | 6 | 48 | CC(C)CCNC(=O)[C@H](Cc1ccc(OC(C(=O)O)C(=O)O)cc1)NC(=O)CCC(=O)O | 
23 | 42 | 87 | 98 | CCCCCNC(=O)C(Cc1ccc(OC(COO)COO)cc1)NC(=O)C(Cc1ccc(C(=O)c2ccccc2)cc1)NC(=O)CCC(=O)O (stereo not drawn) [drawing 133] | 
24 |  |  |  | CCCCCNC(=O)[C@H](Cc1ccc(OCC(=O)O)c(C(=O)O)c1)NC(=O)c1cnc(Cl)c(Cl)c1 [Example 154-2, 2-(carboxymethoxy)-5-[(2S)-2-{[(5,6-dichloro-3-pyridinyl)carbonyl]amino}-3-oxo-3-(pentylamino)propyl]benzoic acid] | inhibition at 1 µM [7]: 23%; inhibition at 10 µM [8]: 72%; inhibition at 100 µM [9]: 95%
25 | 0 | 11 | 57 | CCCCCNC(=O)[C@H](Cc1ccc(OC(C(=O)O)C(=O)O)cc1)NC(=O)C1CC1C(=O)O (stereo partly drawn) | 
26 | 0 | 6 | 35 | O=C(O)CCC(=O)N[C@@H](Cc1ccc(OC(C(=O)O)C(=O)O)cc1)C(=O)NCCCN1CCOCC1 | 
27 | 5 | 34 | 83 | CCCCCNC(=O)[C@H](Cc1ccc(OC(C(=O)O)C(=O)O)cc1)NC(=O)[C@H](CCC(=O)O)NC(=O)OC(C)(C)C | 
28 |  |  |  | O=C(O)COc1ccc(C[C@H](NC(=O)c2ccccc2)C(=O)NCCCCc2ccccc2)cc1C(=O)O [Example 154-8, 5-{(2S)-2-(benzoylamino)-3-oxo-3-[(4-phenylbutyl)amino]propyl}-2-(carboxymethoxy)benzoic acid] | inhibition at 1 µM [7]: 30%; inhibition at 10 µM [8]: 81%; inhibition at 100 µM [9]: 97%
29 |  |  |  | CC(C)(C)OC(=O)N[C@@H](Cc1ccccc1)C(=O)N[C@@H](Cc1ccc(OCC(=O)O)c(C(=O)O)c1)C(=O)NCCCc1ccccc1 [Example 157-1, 5-{(2S)-2-({(2S)-2-[(tert-Butoxycarbonyl)amino]-3-phenylpropanoyl}amino)-3-oxo-3-[(3-phenylpropyl)amino]propyl}-2-(carboxymethoxy)benzoic Acid] | inhibition at 1 µM [7]: 39%; inhibition at 10 µM [8]: 84%; inhibition at 100 µM [9]: 97%
30 |  |  |  | O=C(O)COc1ccc(C[C@H](NS(=O)(=O)c2ccccc2)C(=O)NCCCOc2ccccc2)cc1C(=O)O [Example 156-16, 2-(carboxymethoxy)-5-{(2S)-3-oxo-3-[(3-phenoxypropyl)amino]-2-[(phenylsulfonyl)amino]propyl}benzoic acid] | inhibition at 1 µM [7]: 20%; inhibition at 10 µM [8]: 72%; inhibition at 100 µM [9]: 95%
31 | 4 | 19 | 63 | NS(=O)(=O)c1ccc(CCNC(=O)C(Cc2ccc(OC(COO)COO)cc2)NC(=O)CCC(=O)O)cc1 (stereo not drawn) | 
